US11485701B2, “Insect repellent compounds and compositions, and methods thereof” (Iowa State University Research Foundation, Inc., priority 2016, dated 2022)

What was measured:
Format in all cases: in vivo
[1] = test system: Northern house mosquitoes (Culex pipiens); assay: Contact irritancy assay (percent escape from treated chamber); conditions: organza netting treated with 0.5% solution; 10 min; FIG. 14
Protocol: Northern house mosquitoes (Culex pipiens), a primary carrier of West Nile virus in eastern North America, were obtained from an established colony in the Medical Entomology Laboratory in the Department of Entomology at Iowa State University of Science and Technology, Ames Iowa. Mosquito rearing was performed by established protocols that are maintained by the Medical Entomology Laboratory. Repellency bioassays were performed with adult female mosquitoes that were 5-7 days post-emergent. […] Mosquitoes, prior to testing, were held at 27° C., 80% relative humidity, and on a 16:8 hr light:dark photoperiod.
Organza were cut to approximately 11.5 cm×8 cm to wrap around the inside of the contact irritancy chamber. This piece of organza was treated with 1.5 mL of 0.5% or 0.05% solution of test compound in acetone. This organza was allowed to air-dry for 15 minutes before introducing them into the chamber. Organza sheets were draped around the inside wall of the metallic chamber and fastened to the walls of the chamber with small magnets. […] After ten minutes, the butterfly valve was once again closed and the number of mosquitoes was counted in the clear “counting” chamber. […]

[2] = test system: Northern house mosquitoes (Culex pipiens); assay: Long-term spatial repellency, static air repellency chamber, filter papers air-dried 5 hours; conditions: Culex pipiens, 1 mL of 0.5% solution in acetone, air-dried 5 hours
Procedure, shortened: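 Adult female Culex pipiens, 5–7 days post-emergence, held at 27 °C, 80% RH and 16:8 light:dark, about 20 per replicate in a 9 × 60 cm glass static-air chamber. Filter paper treated with 0.5% compound in acetone and air-dried 5 h is placed at one end; acetone-only papers are the control. Percentage spatial repellency is scored from mosquito distribution at 15–150 min, 4 replicates.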

[3] = test system: Northern house mosquitoes (Culex pipiens); assay: Short-term spatial repellency, static air repellency chamber; conditions: for pest or weed control at 0.5 %: Culex pipiens, filter paper, 1 mL of 0.5% solution in acetone, air-dried 15 min
Procedure, shortened: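 Adult females 5-7 days post-emergence, ~20 per chamber, exposed in a 9×60 cm glass tube to filter paper treated with compound in acetone, the other end untreated. Distribution scored at 15-150 min as % spatial repellency; acetone controls, four replicates.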

[4] = 0.25 h, 15 min, read-out: Long-term Percentage repellency 15 min
[5] = 1.5 h, 90 min, read-out: Long-term Percentage repellency 90 min
[6] = 2.5 h, 150 min, read-out: Long-term Percentage repellency 150 min
[7] = 0.25 h, 15 min after introduction, read-out: Short-term Percentage repellency 15 min
[8] = 1.5 h, 90 min, read-out: Short-term Percentage repellency 90 min
[9] = 2.5 h, 150 min, read-out: Short-term Percentage repellency 150 min

Structure (SMILES) | Contact irritancy, percentage escape [1] | pest or weed control at 0.5 % [2, 4] [%] | pest or weed control at 0.5 % [2, 5] [%] | pest or weed control at 0.5 % [2, 6] [%] | pest or weed control at 0.5 % [3, 7] [%] | pest or weed control at 0.5 % [3, 8] [%] | pest or weed control at 0.5 % [3, 9] [%] | Short-term repellency at low concentration, in words ([3]; filter paper treated with 0.1%, FIG. 6)
CC(C)=CCCC(C)CCOC(=O)C1CC1 (stereo not drawn) [Compound 1035A, citronellyl cyclopropanecarboxylate] | 80% | 70 | 80 | 62.5 | 22.5 | 92.5 | 90 | significant levels of repellency
CC1CCC(C(C)(C)O)C(O)C1 (stereo not drawn) [p-menthane-3,8-diol, reference compound] | approximately 65% | 7.5 | 5 | 5 | 12.5 | 12.5 | 20 | –
